Test results reported in patent publication US10888547B2, “Amorphous and a crystalline form of genz 112638 hemitartrate as inhibitor of glucosylceramide synthase” (Genzyme Corporation, priority 2009, dated 2021).

Tests used:
Fabry mice = experiment: Monotherapy of Fabry mice, drug in diet; format: in vivo, mouse; settings: 300 mg/kg per day in diet, 11 months
Protocol: For the monotherapy studies, Fabry mice were put on study at 1 month old (prevention model). Treatment groups received Formula (I) Hemitartrate (Genzyme Corp., Cambridge, Mass.) as a component of the pellet food diet. The drug was formulated at 0.15% (w/w) in standard 5053 mouse chow (TestDiet, Richmond, Ind.) and provided ad libitum.
Quantitation of GL-3 was by Tandem Mass Spectrometry essentially as for GL-1.
Hot plate Assay was performed as described previously (Ziegler, R J et al. Molec. Ther. 15(3), 492-500 (2007).
SRT was evaluated in a mouse model of Fabry disease, which is caused by a deficiency of α-galactosidase A activity. Therapy with Formula (I) Hemitartrate started with one month-old Fabry mice and continued until the mice reached one year of age. […] Behavioral tests (i.e., hot-plate assay) and biochemical tests (i.e., urinalysis and GL-3 level analysis in tissues/blood/urine) of the mice were performed bimonthly.

[1] = tested on: Gaucher disease type 1 (GD1) patients; experiment: Phase 2 clinical trial in adults with Gaucher disease type 1; format: in vivo, human; settings: 50 or 100 mg bid orally
Protocol: Patients were to have splenomegaly (volume […]) and either thrombocytopenia (platelets 45,000-100,000/mm^3) or anemia (hemoglobin 8-10 g/dl, female; 8-11 g/dl, male). None received enzyme replacement or substrate reduction therapy in the prior 12 months. The composite primary efficacy endpoint is […] (+0.5 g/dl) or platelet count (+15%) after 52 weeks of treatment. Liver volume, chitotriosidase, glucosylceramide are also assessed. Patients continue to be treated and monitored long-term.

[2] = Drug interaction study with ketoconazole (CYP3A4 and p-glycoprotein inhibitor) in healthy subjects; format: in vivo, human; settings: 100 mg twice daily with ketoconazole 400 mg once daily
[3] = Hygroscopicity of salts and free base; format: physicochemical

CCCCCCCC(=O)N[C@H](CN1CCCC1)[C@H](O)c1ccc2c(c1)OCCO2 [Formula (I) Hemitartrate]
presentation of insensitivity to an aversive heat stimulus (hot-plate assay) (Fabry mice): later presentation
urinalysis factors (urine volume, creatinine and sodium levels) (Fabry mice): prevention of deterioration
tolerability and safety profile [1]: well tolerated
composite primary endpoint met (hemoglobin +0.5 g/dl or platelet count +15%) ([1]; 52 weeks): 19 of the 20
mean (SD) change from baseline in chitotriosidase ([1]; Week 52): -49.9%
mean (SD) change from baseline in liver volume (multiples of normal) ([1]; Week 52): -15.8%
mean (SD) change from baseline in platelet count ([1]; Week 52): +43.6% (137.59%)
mean (SD) change from baseline in spleen volume (multiples of normal) ([1]; Week 52): -40.2%
related adverse events ([1]; all mild and transient): Seven related adverse events in 6 patients
time after which plasma glucosylceramide levels normalized ([1]; all patients): 4 weeks
increase in exposure of the free base in plasma at steady state with ketoconazole [2]: 4 fold
Hygroscopicity (40° C./75% RH) ([3]; 40° C./75% RH): None
hygroscopicity of the solid salt ([3]; salt screen, Example 1, listed as hemitartrate (1 salt: 2 Formula I)): non-hygroscopic
